Source: US9145415B2, “Nitrogen-containing heterocyclic compound or salt thereof” (FUJIFILM Corporation, priority 2012, dated 2015)
pIC50: −log10 of the molar value. Like-named read-outs stand apart in the source and are kept apart here.

Columns and labels:
Molm-13 cells = test: Leukemia cell proliferation inhibition test (ATPlite), Molm-13; type: cell-based; settings: Molm-13, 72 hours culture, ATPlite, GI50 per method, read-out: MOLM13 cell proliferation inhibition effect
Procedure, shortened: (§1)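 Molm-13 or MV4-11 cells at 10,000 cells/well in RPMI with 10% FBS and pen/strep were exposed to serially diluted compound for 72 h at 37 °C, 5% CO2. Total cellular ATP was read by luciferase luminescence. GI50 was taken relative to 0.1% DMSO control, from duplicates by sigmoid non-linear regression.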

MV4-11 cells = test: Leukemia cell proliferation inhibition test (ATPlite), MV4-11; type: cell-based; settings: MV4-11, 72 hours culture, ATPlite, GI50 per method, read-out: MV4-11 cell proliferation inhibition effect
Procedure, shortened: as §1

[1] = target: T1, human FLT3 protein (FLT3 (WT)) (Homo sapiens, UniProt P36888); test: FLT3 inhibition test (FLT3 enzyme inhibition, time-resolved fluorescence of substrate peptide phosphorylation); type: biochemical; settings: GST-fused human FLT3 (564 to 993 aa), ATP 50 μM; read-out: FLT3 (WT) enzyme inhibition activity
T1 construct: human FLT3 protein (intracellular region, 564 to 993 aa); GST; purchased Carna Biosciences; host or cells: baculovirus expression system
T1 sequence (P36888 564-993): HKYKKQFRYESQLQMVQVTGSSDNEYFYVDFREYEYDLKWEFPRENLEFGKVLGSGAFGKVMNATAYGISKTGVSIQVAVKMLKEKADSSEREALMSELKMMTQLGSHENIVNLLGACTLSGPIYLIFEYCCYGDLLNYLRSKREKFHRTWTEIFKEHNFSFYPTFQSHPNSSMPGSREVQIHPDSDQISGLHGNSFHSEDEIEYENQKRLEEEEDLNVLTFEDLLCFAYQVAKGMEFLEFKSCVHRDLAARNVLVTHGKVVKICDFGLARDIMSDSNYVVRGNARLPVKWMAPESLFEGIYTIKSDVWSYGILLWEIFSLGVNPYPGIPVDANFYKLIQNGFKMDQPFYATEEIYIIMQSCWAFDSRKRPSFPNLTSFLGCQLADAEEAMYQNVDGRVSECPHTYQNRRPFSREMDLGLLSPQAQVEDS
Procedure, shortened: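 Substrate peptide phosphorylation detected by time-resolved fluorescence after a 30 min kinase reaction at 25° C with 50 μM ATP (final). Beforehand, compound and FLT3 (WT, 1.2 μg) stood 15 min at 25° C in HEPES buffer pH 7.5 containing MgCl2, NaCl, BSA and DTT.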

| pIC50 (Molm-13 cells; Homo sapiens, MOLM-13, 72 h) | pIC50 (MV4-11 cells; Homo sapiens, MV4-11, 72 h) | pIC50 [1] | pIC50 (Molm-13 cells) | pIC50 (MV4-11 cells) | Structure (SMILES) |
| --- | --- | --- | --- | --- | --- |
| 7.00 to 8.00 | 7.00 to 8.00 | > 8.00 | – | – | CCCNc1nc(Nc2cccc(F)c2)ncc1C#CCCCNC(=O)[C@H](C(C)C)N(C)C(=O)/C=C/CN(C)C [Compound 7-10] |
| 7.00 to 8.00 | 7.00 to 8.00 | > 8.00 | – | – | CCCNc1nc(Nc2cccc(F)c2)ncc1C#CCCCNC(=O)[C@H](CC(C)C)N(C)C(=O)/C=C/CN(C)C [Compound 7-11] |
| 6.00 to 7.00 | 6.00 to 7.00 | 7.00 to 8.00 | – | – | CCCNc1nc(Nc2cccc(F)c2)ncc1C#CCCCNC(=O)[C@H](C(C)CC)N(C)C(=O)/C=C/CN(C)C (stereo partly drawn) [Compound 7-12] |
| 7.00 to 8.00 | > 8.00 | > 8.00 | – | – | C[C@@H](C(=O)NCCCC#Cc1cnc(Nc2cccc(F)c2)nc1Nc1ccc(C#N)cc1)N(C)C(=O)/C=C/CN(C)C [Compound 7-14] |
| > 8.00 | > 8.00 | 7.00 to 8.00 | – | – | CCCNc1nc(Nc2ccc(C(=O)N(C)C)cc2)ncc1C#CCCCNC(=O)[C@H](C)N(C)C(=O)/C=C/CN(C)C [Compound 7-15] |
| > 8.00 | > 8.00 | 7.00 to 8.00 | – | – | CCCNc1nc(Nc2ccc(C(=O)N(C)C)cc2)ncc1C#CCCCNC(=O)CN(C)C(=O)/C=C/CN(C)C [Compound 7-16] |
| > 8.00 | > 8.00 | > 8.00 | – | – | CCCNc1nc(Nc2cccc(F)c2)ncc1C#CCCCNC(=O)[C@H](CC)N(C)C(=O)/C=C/CN(C)C [Compound 7-17] |
| 7.00 to 8.00 | 7.00 to 8.00 | > 8.00 | – | – | CCCNc1nc(Nc2cccc(F)c2)ncc1C#CCCCNC(=O)[C@H](CCC)N(C)C(=O)/C=C/CN(C)C [Compound 7-18] |
| > 8.00 | > 8.00 | > 8.00 | – | – | COc1ccc(Nc2nc(Nc3cccc(F)c3)ncc2C#CCCCNC(=O)[C@H](C)N(C)C(=O)/C=C/CN(C)C)cn1 [Compound 7-19] |
| > 8.00 | > 8.00 | > 8.00 | – | – | CCCNc1nc(Nc2ccc(OC)c(F)c2)ncc1C#CCCCNC(=O)[C@H](C)N(C)C(=O)/C=C/CN(C)C [Compound 7-20, (S,E)-4-(Dimethylamino)-N-(1-((5-(2-((3-fluoro-4-methoxyphenyl)amino)-4-(propylamino)pyrimidin-5-yl)-4-pentyn-1-yl)amino)-1-oxopropan-2-yl)-N-methyl-2-butenamide] |
| > 8.00 | > 8.00 | > 8.00 | – | – | CCCNc1nc(Nc2ccc(F)nc2)ncc1C#CCCCNC(=O)[C@H](C)N(C)C(=O)/C=C/CN(C)C [Compound 7-21, (S,E)-4-(Dimethylamino)-N-(1-((5-(2-((6-fluoropyridin-3-yl)amino)-4-(propylamino)pyrimidin-5-yl)-4-pentyn-1-yl)amino)-1-oxopropan-2-yl)-N-methyl-2-butenamide] |
| > 8.00 | > 8.00 | > 8.00 | – | – | COc1ccc(Nc2nc(Nc3ccc(F)nc3)ncc2C#CCCCNC(=O)[C@H](C)N(C)C(=O)/C=C/CN(C)C)cc1 [Compound 7-22] |
| 7.00 to 8.00 | > 8.00 | > 8.00 | – | – | CCCNc1nc(Nc2ccc(OC)nc2)ncc1C#CCCCNC(=O)[C@H](C)N(C)C(=O)/C=C/CN(C)C [Compound 7-23] |
| > 8.00 | > 8.00 | > 8.00 | – | – | CCCNc1nc(Nc2cccc(F)c2)ncc1C#CCCCNC(=O)CN(C)C(=O)/C=C/CN(C)C [Compound 7-24, (E)-4-(Dimethylamino)-N-(2-((5-(2-((3-fluorophenyl)amino)-4-(propylamino)pyrimidin-5-yl)-4-pentyn-1-yl)amino)-2-oxoethyl)-N-methyl-2-butenamide] |
| 7.00 to 8.00 | > 8.00 | > 8.00 | – | – | CCCNc1nc(Nc2cccc(F)c2)ncc1C#Cc1ccccc1CNC(=O)[C@H](C)N(C)C(=O)/C=C/CN(C)C [Compound 7-25] |
| > 8.00 | 7.00 to 8.00 | > 8.00 | – | – | CCCNc1nc(Nc2cccc(F)c2)ncc1/C=C/c1cccc(NC(=O)[C@H](C)N(C)C(=O)/C=C/CN(C)C)c1 [Compound 7-27] |
| > 8.00 | > 8.00 | > 8.00 | – | – | CCCNc1nc(Nc2cccc(F)c2)ncc1C#CC(C)(C)CCNC(=O)[C@H](C)N(C)C(=O)/C=C/CN(C)C [Compound 7-28] |
| 6.00 to 7.00 | 7.00 to 8.00 | > 8.00 | – | – | CCCNc1nc(Nc2ccc(C(N)=O)cc2)ncc1CCCCCNC(=O)CNC(=O)/C=C/CN(C)C [Compound 7-29] |

| pIC50 (Molm-13 cells; Homo sapiens, MOLM-13, 72 h) | pIC50 (MV4-11 cells; Homo sapiens, MV4-11, 72 h) | pIC50 [1] | pIC50 (Molm-13 cells) | pIC50 (MV4-11 cells) | Structure (SMILES) |
| --- | --- | --- | --- | --- | --- |
| > 8.00 | > 8.00 | > 8.00 | – | – | C[C@@H](C(=O)NCCCC#Cc1cnc(Nc2cccc(F)c2)nc1NCCCF)N(C)C(=O)/C=C/CN(C)C [Compound 7-31] |
| > 8.00 | > 8.00 | > 8.00 | – | – | CCCNc1nc(Nc2ccc(C#N)cc2)ncc1C#CCCCNC(=O)[C@@H]1CCCN1C(=O)/C=C/CN(C)C [Compound 7-33, (S,E)-N-(5-(2-((4-Cyanophenyl)amino)-4-(propylamino)pyrimidin-5-yl)-4-pentyn-1-yl)-1-(4-(dimethylamino)-2-butenoyl)pyrrolidine-2-carboxamide] |
| > 8.00 | > 8.00 | > 8.00 | – | – | CCCNc1nc(Nc2ccc(C#N)cc2)ncc1C#CCCCNC(=O)[C@H](CC)N(C)C(=O)/C=C/CN(C)C [Compound 7-34] |
| > 8.00 | > 8.00 | > 8.00 | – | – | C[C@@H](C(=O)N[C@H]1CCC[C@@H](C#Cc2cnc(Nc3ccc(C#N)cc3)nc2NC2CC2)C1)N(C)C(=O)/C=C/CN(C)C [Compound 7-35] |
| 7.00 to 8.00 | > 8.00 | > 8.00 | – | – | CCCNc1nc(Nc2ccc(C#N)cc2)ncc1C#CCCCNC(=O)[C@H]1CCCN1C(=O)/C=C/CN(C)C [Compound 7-36] |
| > 8.00 | > 8.00 | > 8.00 | – | – | CCCNc1nc(Nc2ccc(C#N)cc2)ncc1C#CCCCNC(=O)[C@@H]1CCCCN1C(=O)/C=C/CN(C)C [Compound 7-37] |
| 7.00 to 8.00 | 7.00 to 8.00 | > 8.00 | – | – | CCCNc1nc(Nc2ccc(C#N)cc2)ncc1C#CCCCNC(=O)[C@H]1CCCCN1C(=O)/C=C/CN(C)C [Compound 7-38] |
| > 8.00 | > 8.00 | > 8.00 | – | – | CCCNc1nc(Nc2ccc(C#N)cc2)ncc1C#CCCCNC(=O)CN(CC)C(=O)/C=C/CN(C)C [Compound 7-39] |
| > 8.00 | > 8.00 | > 8.00 | – | – | CCCNc1nc(Nc2ccc(C#N)cc2)ncc1C#CCCCNC(=O)CN(C(=O)/C=C/CN(C)C)C(C)C [Compound 7-40] |
| > 8.00 | > 8.00 | > 8.00 | – | – | CCCNc1nc(Nc2ccc(F)c(F)c2)ncc1C#CCCCNC(=O)[C@H](C)N(C)C(=O)/C=C/CN(C)C [Compound 7-41] |
| > 8.00 | > 8.00 | > 8.00 | – | – | COc1ccc(Nc2ncc(C#CCCCNC(=O)[C@H](C)N(C)C(=O)/C=C/CN(C)C)c(NC3CC3)n2)cc1F [Compound 7-42, (S,E)-N-(1-((5-(4-(Cyclopropylamino)-2-((3-fluoro-4-methoxyphenyl)amino)pyrimidin-5-yl)-4-pentyn-1-yl)amino)-1-oxopropan-2-yl)-4-(dimethylamino)-N-methyl-2-butenamide] |
| > 8.00 | > 8.00 | > 8.00 | – | – | CCCNc1nc(Nc2ccc(C#N)cc2)ncc1C#CCCCNC(=O)CN(Cc1ccccc1)C(=O)/C=C/CN(C)C [Compound 7-43] |
| > 8.00 | > 8.00 | > 8.00 | – | – | CCCNc1nc(Nc2ccc(C#N)cc2)ncc1C#CCCCNC(=O)[C@H](COC)NC(=O)/C=C/CN(C)C [Compound 7-44] |
| – | – | > 8.00 | > 8.00 | > 8.00 | CCCNc1nc(Nc2cccc(F)c2)ncc1C#CCCCNC(=O)[C@@H]1CCCN1C(=O)/C=C/CN(C)C [Compound 7-45] |
| 7.00 to 8.00 | > 8.00 | > 8.00 | – | – | CCCNc1nc(Nc2cccc(F)c2)ncc1C#CCCCNC(=O)[C@@H]1CCCCN1C(=O)/C=C/CN(C)C [Compound 7-46] |
| > 8.00 | > 8.00 | > 8.00 | – | – | CCCNc1nc(Nc2cccc(F)c2)ncc1C#CCCCNC(=O)[C@@H]1C[C@@H](F)CN1C(=O)/C=C/CN(C)C [Compound 7-47] |
| > 8.00 | > 8.00 | > 8.00 | – | – | CCCNc1nc(Nc2ccc(C#N)cc2)ncc1C#CCCCNC(=O)[C@@H]1C[C@@H](F)CN1C(=O)/C=C/CN(C)C [Compound 7-48] |
